Structures can show the parent of a compound that is named as a salt.
molecular target: ROCK2 (Homo sapiens (Human), UniProt O75116); assay: ROCK2 kinase inhibition assay (FITC peptide substrate, LABCHIP 3000 Reader); type: biochemical; settings: 5 μM ATP, 1.5 μM peptide substrate
Method: The effectiveness of compounds of the present invention as ROCK inhibitors can be determined in a 30 μL assay containing 20 mM HEPES, pH 7.5, 20 mM MgCl2, 0.015% Brij-35, 4 mM DTT, 5 μM ATP and 1.5 μM peptide substrate (FITC-AHA-AKRRRLSSLRA-OH) (SEQ ID NO. 1). Compounds were dissolved in DMSO so that the final concentration of DMSO was <2%, and the reaction was initiated with Rho kinase variants. After incubation, the reaction was terminated by the addition of EDTA and the phosphorylated and non-phosphorylated peptides separated using a LABCHIP® 3000 Reader (Caliper Life Sciences). […] Compounds were tested in dose-response format, and the inhibition of kinase activity was calculated at each concentration of compound. The inhibition data were fit using a curve-fitting program to determine the IC50; i.e., the concentration of compound required to inhibit 50% of kinase activity.
Representative examples were tested in the ROCK2 assay described above and found having ROCK2 inhibitory activity.

Sequence of ROCK2 (O75116 whole entry, species assumed): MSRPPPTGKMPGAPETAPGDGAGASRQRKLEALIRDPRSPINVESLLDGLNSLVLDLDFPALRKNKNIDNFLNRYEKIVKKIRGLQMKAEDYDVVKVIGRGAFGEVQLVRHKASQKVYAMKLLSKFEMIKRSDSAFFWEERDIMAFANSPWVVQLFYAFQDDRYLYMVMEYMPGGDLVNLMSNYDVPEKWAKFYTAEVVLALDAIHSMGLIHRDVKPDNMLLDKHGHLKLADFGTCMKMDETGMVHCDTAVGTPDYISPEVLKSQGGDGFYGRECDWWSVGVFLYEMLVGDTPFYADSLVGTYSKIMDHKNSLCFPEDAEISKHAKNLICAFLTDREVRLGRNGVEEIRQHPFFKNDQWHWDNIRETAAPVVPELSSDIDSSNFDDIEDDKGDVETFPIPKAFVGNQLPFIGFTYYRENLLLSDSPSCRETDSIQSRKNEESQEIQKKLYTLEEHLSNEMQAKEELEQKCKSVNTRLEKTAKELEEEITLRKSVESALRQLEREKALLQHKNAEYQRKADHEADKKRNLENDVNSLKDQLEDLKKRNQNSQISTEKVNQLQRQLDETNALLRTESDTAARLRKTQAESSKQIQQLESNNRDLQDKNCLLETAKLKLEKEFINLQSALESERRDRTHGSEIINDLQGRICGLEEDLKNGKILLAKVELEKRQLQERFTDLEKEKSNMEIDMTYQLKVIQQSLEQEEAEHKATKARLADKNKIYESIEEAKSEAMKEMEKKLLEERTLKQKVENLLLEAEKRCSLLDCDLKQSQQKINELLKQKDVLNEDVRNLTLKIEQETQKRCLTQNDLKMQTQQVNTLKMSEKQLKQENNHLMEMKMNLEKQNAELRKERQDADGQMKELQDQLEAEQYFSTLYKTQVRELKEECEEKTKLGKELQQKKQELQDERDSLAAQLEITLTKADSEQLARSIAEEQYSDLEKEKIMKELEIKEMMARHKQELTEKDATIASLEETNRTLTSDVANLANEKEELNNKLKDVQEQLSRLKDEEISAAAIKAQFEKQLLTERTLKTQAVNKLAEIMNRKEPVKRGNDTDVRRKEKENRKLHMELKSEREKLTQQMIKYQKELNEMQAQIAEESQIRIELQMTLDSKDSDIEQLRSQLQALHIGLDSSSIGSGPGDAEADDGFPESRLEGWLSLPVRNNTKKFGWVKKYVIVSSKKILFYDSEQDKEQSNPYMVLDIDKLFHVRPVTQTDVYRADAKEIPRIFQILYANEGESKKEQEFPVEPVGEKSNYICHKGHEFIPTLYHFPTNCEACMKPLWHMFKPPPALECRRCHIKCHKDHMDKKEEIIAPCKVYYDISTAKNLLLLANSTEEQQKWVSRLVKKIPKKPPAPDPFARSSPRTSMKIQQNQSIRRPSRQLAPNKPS

SMILES	IC50
COc1cccc(CN2C(=O)N(c3ccc(-c4cn[nH]c4)cc3)CC23CCN(C(=O)OC(C)(C)C)CC3)c1 [Example 48, tert-butyl 3-(4-(1H-pyrazol-4-yl)phenyl)-1-(3-methoxybenzyl)-2-oxo-1,3,8-triazaspiro[4.5]decane-8-carboxylate]	3 to 30 nM
Cc1c(F)cccc1CN1C(=O)N(c2ccc(-c3cn[nH]c3)cc2)CC12CCN(C(=O)OC(C)(C)C)CC2 [Example 49, tert-butyl 3-(4-(1H-pyrazol-4-yl)phenyl)-1-(3-fluoro-2-methylbenzyl)-2-oxo-1,3,8-triazaspiro[4.5]decane-8-carboxylate]	3 to 30 nM
COc1cccc(CN2C(=O)N(c3ccc(-c4cn[nH]c4)cn3)CC23CCN(C(C)=O)CC3)c1 [Example 50, 3-(5-(1H-pyrazol-4-yl)pyridin-2-yl)-8-acetyl-1-(3-methoxybenzyl)-1,3,8-triazaspiro[4.5]decan-2-one]	3 to 30 nM
COc1cccc(CN2C(=O)N(c3ccc(-c4cn[nH]c4)cn3)CC23CCN(C(=O)OC(C)(C)C)CC3)c1 [Example 51, tert-butyl 3-(5-(1H-pyrazol-4-yl)pyridin-2-yl)-1-(3-methoxybenzyl)-2-oxo-1,3,8-triazaspiro[4.5]decane-8-carboxylate]	3 to 30 nM
COc1cccc(CN2C(=O)N(c3ccc(-c4cn[nH]c4)c(C)n3)CC23CCN(C(=O)OC(C)(C)C)CC3)c1 [Example 52, tert-butyl 1-(3-methoxybenzyl)-3-(6-methyl-5-(1H-pyrazol-4-yl)pyridin-2-yl)-2-oxo-1,3,8-triazaspiro[4.5]decane-8-carboxylate]	30 to 250 nM
CCc1nc(N2CC3(CCN(C(=O)OC(C)(C)C)CC3)N(Cc3cccc(OC)c3)C2=O)ccc1-c1cn[nH]c1 [Example 53, tert-butyl 3-(6-ethyl-5-(1H-pyrazol-4-yl)pyridin-2-yl)-1-(3-methoxybenzyl)-2-oxo-1,3,8-triazaspiro[4.5]decane-8-carboxylate]	30 to 250 nM
COc1cccc(CN2C(=O)N(c3ccc(-c4cn[nH]c4)c(OC)n3)CC23CCN(C(=O)OC(C)(C)C)CC3)c1 [Example 54, tert-butyl 3-(6-methoxy-5-(1H-pyrazol-4-yl)pyridin-2-yl)-1-(3-methoxybenzyl)-2-oxo-1,3,8-triazaspiro[4.5]decane-8-carboxylate]	< 3 nM
COc1nc(N2CC3(CCN(C(=O)OC(C)(C)C)CC3)N(Cc3cccc(F)c3C)C2=O)ccc1-c1cn[nH]c1 [Example 55, tert-butyl 1-(3-fluoro-2-methylbenzyl)-3-(6-methoxy-5-(1H-pyrazol-4-yl)pyridin-2-yl)-2-oxo-1,3,8-triazaspiro[4.5]decane-8-carboxylate]	3 to 30 nM
COc1cccc(CN2C(=O)N(c3ncc(-c4cn[nH]c4)c(OC)n3)CC23CCN(C(=O)OC(C)(C)C)CC3)c1 [Example 56, tert-butyl 3-(4-methoxy-5-(1H-pyrazol-4-yl)pyrimidin-2-yl)-1-(3-methoxybenzyl)-2-oxo-1,3,8-triazaspiro[4.5]decane-8-carboxylate]	3 to 30 nM
COc1cc(F)cc(CN2C(=O)N(c3ccc(-c4cn[nH]c4)cc3)CC23CCNCC3)c1 [Example 58, 3-(4-(1H-pyrazol-4-yl)phenyl)-1-(3-fluoro-5-methoxybenzyl)-1,3,8-triazaspiro[4.5]decan-2-one, TFA]	< 3 nM
COc1cc(CN2C(=O)N(c3ccc(-c4cn[nH]c4)cc3)CC23CCNCC3)ccc1F [Example 59, 3-(4-(1H-pyrazol-4-yl)phenyl)-1-(4-fluoro-3-methoxybenzyl)-1,3,8-triazaspiro[4.5]decan-2-one]	< 3 nM
O=C1N(c2ccc(-c3cn[nH]c3)cc2)CC2(CCNCC2)N1Cc1cccc(OCC2CC2)c1 [Example 60, 3-(4-(1H-pyrazol-4-yl)phenyl)-1-(3-(cyclopropylmethoxy)benzyl)-1,3,8-triazaspiro[4.5] decan-2-one, TFA]	3 to 30 nM
O=C1N(c2ccc(-c3cn[nH]c3)cc2)CC2(CCNCC2)N1Cc1cccc(OC(F)F)c1 [Example 61, 3-(4-(1H-pyrazol-4-yl)phenyl)-1-(3-(difluoromethoxy)benzyl)-1,3,8-triazaspiro[4.5]decan-2-one]	3 to 30 nM
O=C1N(c2ccc(-c3cn[nH]c3)cc2)CC2(CCNCC2)N1Cc1ccccc1F [Example 63, 3-(4-(1H-pyrazol-4-yl)phenyl)-1-(2-fluorobenzyl)-1,3,8-triazaspiro[4.5]decan-2-one]	3 to 30 nM
O=C1N(c2ccc(-c3cn[nH]c3)cc2)CC2(CCNCC2)N1Cc1cccc(F)c1F [Example 64]	3 to 30 nM
O=C1N(c2ccc(-c3cn[nH]c3)cc2)CC2(CCNCC2)N1CC1CCCCC1 [Example 67]	3 to 30 nM
O=C1N(c2ccc(-c3cn[nH]c3)cc2)CC2(CCNCC2)N1Cc1cc(F)cc(F)c1 [Example 68]	3 to 30 nM

Second part, the molecule after the results:

IC50	SMILES
< 3 nM	CC(C)CNC(=O)c1cccc(CN2C(=O)N(c3ccc(-c4cn[nH]c4)cc3)CC23CCOCC3)c1 [Example 35, 3-((3-(4-(1H-pyrazol-4-yl)phenyl)-2-oxo-8-oxa-1,3-diazaspiro[4.5]decan-1-yl)methyl)-N-isobutylbenzamide]
< 3 nM	O=C(NCCO)c1cccc(CN2C(=O)N(c3ccc(-c4cn[nH]c4)cc3)CC23CCOCC3)c1 [Example 36, 3-((3-(4-(1H-pyrazol-4-yl)phenyl)-2-oxo-8-oxa-1,3-diazaspiro[4.5]decan-1-yl)methyl)-N-(2-hydroxyethyl)benzamide]
< 3 nM	O=C(NCC1CC1)c1cccc(CN2C(=O)N(c3ccc(-c4cn[nH]c4)cc3)CC23CCOCC3)c1 [Example 37, 3-((3-(4-(1H-pyrazol-4-yl)phenyl)-2-oxo-8-oxa-1,3-diazaspiro[4.5]decan-1-yl)methyl)-N-(cyclopropylmethyl)benzamide]
< 3 nM	O=C(NCC(F)(F)F)c1cccc(CN2C(=O)N(c3ccc(-c4cn[nH]c4)cc3)CC23CCOCC3)c1 [Example 38, 3-((3-(4-(1H-pyrazol-4-yl)phenyl)-2-oxo-8-oxa-1,3-diazaspiro[4.5]decan-1-yl)methyl)-N-(2,2,2-trifluoroethyl)benzamide]
3 to 30 nM	CC1(NC(=O)c2cccc(CN3C(=O)N(c4ccc(-c5cn[nH]c5)cc4)CC34CCOCC4)c2)CC1 [Example 39, 3-((3-(4-(1H-pyrazol-4-yl)phenyl)-2-oxo-8-oxa-1,3-diazaspiro[4.5]decan-1-yl)methyl)-N-(1-methylcyclopropyl)benzamide]
< 3 nM	O=C(NC1CCOC1)c1cccc(CN2C(=O)N(c3ccc(-c4cn[nH]c4)cc3)CC23CCOCC3)c1 (centres unmarked) [Example 40, 3-((3-(4-(1H-pyrazol-4-yl)phenyl)-2-oxo-8-oxa-1,3-diazaspiro[4.5]decan-1-yl)methyl)-N-(tetrahydrofuran-3-yl)benzamide]
30 to 250 nM	CCN(C)C(=O)c1cccc(CN2C(=O)N(c3ccc(-c4cn[nH]c4)cc3)CC23CCOCC3)c1 [Example 41, 3-((3-(4-(1H-pyrazol-4-yl)phenyl)-2-oxo-8-oxa-1,3-diazaspiro[4.5]decan-1-yl)methyl)-N-ethyl-N-methylbenzamide]
30 to 250 nM	CN(C)C(=O)c1cccc(CN2C(=O)N(c3ccc(-c4cn[nH]c4)cc3)CC23CCOCC3)c1 [Example 42, 3-((3-(4-(1H-pyrazol-4-yl)phenyl)-2-oxo-8-oxa-1,3-diazaspiro[4.5]decan-1-yl)methyl)-N,N-dimethylbenzamide]
250 to 3000 nM	O=C(c1cccc(CN2C(=O)N(c3ccc(-c4cn[nH]c4)cc3)CC23CCOCC3)c1)N1CC(F)C1 [Example 43, 3-(4-(1H-pyrazol-4-yl)phenyl)-1-(3-(3-fluoroazetidine-1-carbonyl)benzyl)-8-oxa-1,3-diazaspiro[4.5]decan-2-one]
30 to 250 nM	O=C(c1cccc(CN2C(=O)N(c3ccc(-c4cn[nH]c4)cc3)CC23CCOCC3)c1)N1CC[C@H](O)C1 [Example 44, (S)-3-(4-(1H-pyrazol-4-yl)phenyl)-1-(3-(3-hydroxypyrrolidine-1-carbonyl)benzyl)-8-oxa-1,3-diazaspiro[4.5]decan-2-one]
< 3 nM	CN(C(=O)c1cccc(CN2C(=O)N(c3ccc(-c4cn[nH]c4)cc3)CC23CCOCC3)c1)C1CC1 [Example 45, 3-((3-(4-(1H-pyrazol-4-yl)phenyl)-2-oxo-8-oxa-1,3-diazaspiro[4.5]decan-1-yl)methyl)-N-cyclopropyl-N-methylbenzamide]
3 to 30 nM	CN(C)C1CN(C(=O)c2cccc(CN3C(=O)N(c4ccc(-c5cn[nH]c5)cc4)CC34CCOCC4)c2)C1 [Example 46, 3-(4-(1H-pyrazol-4-yl)phenyl)-1-(3-(3-(dimethylamino)azetidine-1-carbonyl)benzyl)-8-oxa-1,3-diazaspiro[4.5]decan-2-one]
3 to 30 nM	O=C(c1cccc(CN2C(=O)N(c3ccc(-c4cn[nH]c4)cc3)CC23CCOCC3)c1)N1CCC(CO)CC1 [Example 47, 3-(4-(1H-pyrazol-4-yl)phenyl)-1-(3-(4-(hydroxymethyl)piperidine-1-carbonyl)benzyl)-8-oxa-1,3-diazaspiro[4.5]decan-2-one]
< 3 nM	COc1cccc(CN2C(=O)N(c3ccc(-c4cn[nH]c4)cc3)CC23CCNCC3)c1 [Example 57, 3-(4-(1H-pyrazol-4-yl)phenyl)-1-(3-methoxybenzyl)-1,3,8-triazaspiro[4.5]decan-2-one]
< 3 nM	O=C1N(c2ccc(-c3cn[nH]c3)cc2)CC2(CCNCC2)N1Cc1cccc(O)c1 [Example 62, 3-(4-(1H-pyrazol-4-yl)phenyl)-1-(3-hydroxybenzyl)-1,3,8-triazaspiro[4.5]decan-2-one]

— patent publication US10787450B2 (BRISTOL-MYERS SQUIBB COMPANY, priority 2016, dated 2020)
